{"source": "patent US10493026B2", "about": "“Process for making tablet using radiofrequency and lossy coated particles” (Johnson & Johnson Consumer Inc., priority 2017, dated 2019)", "assay": "Permittivity (Q, e′, e″) by impedance analyzer, capacitance method", "format": "physicochemical", "settings": "27 MHz", "source_text": "The property of permittivity is the measure of the resistance to forming an electric field. For purposes of comparing materials in air, it is often convenient to describe the permittivity of material in air where the permittivity is more specifically called “relative permittivity” or €r. This is a complex number represented by the following equation: €r=e′−je″ where e′ (the real portion of the complex number) is the dielectric constant (energy storage) and e″ (the imaginary portion of the complex number) is the dielectric loss or dissipation factor (energy dissipated as heat). The ratio of dielectric loss (e″) over the dielectric constant (e′) is called the loss tangent (tan δ) or power factor. […] The Q value is affected by physical and chemical properties such as density (porosity/particle size), moisture (conductivity), temperature, and molecular polarizability. The measurements obtained by this method can eliminate the need to measure and evaluate these properties independently.\nPermittivity values (Q, e′, e″) were measured using an Agilent Impedance Analyzer at 27Mhz using a capacitance method wherein a fixture with a bottom fixed plate and top adjustable plate with a torque limiter which lightly compresses a cylindrical sample container to remove any air. During testing, the container is over filled with material and then carefully leveled off to avoid void spaces. A lid is placed on top to temporarily seal material within the container. Once a measurement is made, custom software calculates the difference between the sample and the configuration empty.", "note": "“And” between values parts separate entries of the source, which are not always exact repeats. Equal entries are not always repeated."}
{"smiles": "OC[C@@H](O)[C@@H](O)[C@H](O)[C@@H](O)CO", "note": "[Sorbitol Powder, NF, Sorbitol]", "values": [{"measurement": "Loss Tangent", "setting": "Table 1A", "value": "0.0358 and 0.0462 and 0.0361"}, {"measurement": "e′", "setting": "Table 1A", "value": "1.960 and 2.097 and 1.803"}, {"measurement": "e″", "setting": "Table 1A", "value": "0.0701 and 0.0969 and 0.0650"}]}
{"smiles": "OC[C@@H](O)[C@@H](O)[C@H](O)[C@H](O)CO", "note": "[Mannitol NF (Pearlitol 200SD), Mannitol]", "values": [{"measurement": "Loss Tangent", "setting": "Table 1A", "value": 0.0028}, {"measurement": "e′", "setting": "Table 1A", "value": 1.410}, {"measurement": "e″", "setting": "Table 1A", "value": 0.004}]}
{"smiles": "OC[C@@H](O)[C@@H](O[C@H]1O[C@H](CO)[C@@H](O)[C@H](O)[C@H]1O)[C@H](O)[C@@H](O)CO", "note": "[Maltitol, NF (SweetPearl P300DC), Maltitol]", "values": [{"measurement": "Loss Tangent", "setting": "Table 1A", "value": 0.0035}, {"measurement": "e′", "setting": "Table 1A", "value": 1.703}, {"measurement": "e″", "setting": "Table 1A", "value": 0.006}, {"measurement": "Loss Tangent", "setting": "Table 1B", "value": 0.0022}, {"measurement": "e′", "setting": "Table 1B", "value": 1.6214}, {"measurement": "e″", "setting": "Table 1B", "value": 0.0035}]}
